According to ChEMBL document CHEMBL1135565, “Synthesis of base-modified dihydropacidamycins” (2002):

Columns and labels:
Format in all cases: functional
Escherichia coli = experiment: Minimum inhibitory concentration against Escherichia coli
Pseudomonas aeruginosa = experiment: Minimum inhibitory concentration against Pseudomonas aeruginosa
Staphylococcus aureus = experiment: Minimum inhibitory concentration against Staphylococcus aureus
Pasteurella multocida = experiment: Minimum inhibitory concentration against Pasteurella multocida

Row | SMILES | MIC (Escherichia coli) [µg/mL] | MIC (Pseudomonas aeruginosa) [µg/mL] | MIC (Staphylococcus aureus) [µg/mL] | MIC (Pasteurella multocida) [µg/mL]
1 | C[C@H](NC(=O)N[C@@H](Cc1c[nH]c2ccccc12)C(=O)O)C(=O)N[C@H](C(=O)NC[C@H]1C[C@@H](O)[C@H](n2cc(Cl)c(=O)[nH]c2=O)O1)[C@H](C)N(C)C(=O)[C@@H](C)N | > 512 | > 512 | > 512 | > 512
2 | C[C@H](NC(=O)N[C@@H](Cc1c[nH]c2ccccc12)C(=O)O)C(=O)N[C@H](C(=O)NC[C@H]1C[C@@H](O)[C@H](n2cc(F)c(=O)[nH]c2=O)O1)[C@H](C)N(C)C(=O)[C@@H](C)N | > 512 | > 512 | > 512 | > 512
3 | Cc1cc(=O)[nH]c(=O)n1[C@@H]1O[C@@H](CNC(=O)[C@@H](NC(=O)[C@H](C)NC(=O)N[C@@H](Cc2c[nH]c3ccccc23)C(=O)O)[C@H](C)N(C)C(=O)[C@@H](C)N)C[C@H]1O | > 512 | > 512 | > 512 | > 512

Now from value to molecule:

Row | MIC (Escherichia coli) [µg/mL] | MIC (Pseudomonas aeruginosa) [µg/mL] | MIC (Staphylococcus aureus) [µg/mL] | MIC (Pasteurella multocida) [µg/mL] | SMILES
4 | > 512 | > 512 | > 512 | > 512 | C[C@H](NC(=O)N[C@@H](Cc1c[nH]c2ccccc12)C(=O)O)C(=O)N[C@H](C(=O)NC[C@H]1C[C@@H](O)[C@H](n2ccc(=O)n(C)c2=O)O1)[C@H](C)N(C)C(=O)[C@@H](C)N
5 | > 512 | > 512 | > 512 | > 512 | COc1cccn([C@@H]2O[C@@H](CNC(=O)[C@@H](NC(=O)[C@H](C)NC(=O)N[C@@H](Cc3c[nH]c4ccccc34)C(=O)O)[C@H](C)N(C)C(=O)[C@@H](C)N)C[C@H]2O)c1=O
6 | > 512 | > 512 | > 512 | > 512 | Cc1cn([C@@H]2O[C@@H](CNC(=O)[C@@H](NC(=O)[C@H](C)NC(=O)N[C@@H](Cc3c[nH]c4ccccc34)C(=O)O)[C@H](C)N(C)C(=O)[C@@H](C)N)C[C@H]2O)c(=O)[nH]c1=O
7 | > 512 | > 512 | > 512 | > 512 | Cc1c(C)n([C@@H]2O[C@@H](CNC(=O)[C@@H](NC(=O)[C@H](C)NC(=O)N[C@@H](Cc3c[nH]c4ccccc34)C(=O)O)[C@H](C)N(C)C(=O)[C@@H](C)N)C[C@H]2O)c(=O)[nH]c1=O
